Assay results: patent US20240024216A1, “METHODS AND MATERIALS FOR TREATING HAIR LOSS” (The Penn State Research Foundation, priority 2021, published 2024)

System: wound healing mouse skin sections
Experiment: Immunostaining and western blot of day 14 wound tissue markers
Type: in vivo, mice
Experimental: Briefly, immunohistochemical and immunofluorescence analysis were performed on 5 μm thick wound healing mouse skin sections. The sections were deparaffinized and subjected to an antigen retrieval process by using sodium citrate buffer at 95° C. followed by immersed in 0.5% triton X-100. The section slides were blocked using 5% goat serum in 0.1% PBS-T for 1 hour. The following primary antibodies mouse monoclonal [LL002] anti-Cytokeratin14 (catalog No.—ab7800; IF-1:100), rat CD31 antibody (Catalog No.—553370; IF-1:100), mouse S100 antibody (Catalog No.—MA5-12969; IF-1:200), rabbit nerve growth factor receptor—p75-NTR antibody (Catalog No.—AB1554; IF and WB-1:500), Chicken neurofilament Heavy-NFH antibody (Catalog No.—NB300-217; IF-1:500), mouse alpha-smooth muscle actin —α-SMA antibody (Catalog No.—14-9760-82; IF-1:200 and WB-1:500), mouse TGF beta antibody (Catalog No.—27969; IF-1:100 and WB-1:500), rabbit Ki67 antibody (Catalog No.—9129S; IF-1:400), chicken keratin 15 antibody (Catalog No. —833901; IF-1:500), rabbit K17 antibody (gift from Pierre a. coulombe Lab; IF-1:1000), rabbit interleukin-1 beta antibody (Catalog No.—GTX74034; IF-1:100), rat F4/80 antibody (Catalog No.—MCA497GA; IF-1:100), mouse anti-SOX10 antibody (Catalog No.—sc-365692; IF-1:100 and WB-1:200), chicken anti-myelin basic protein antibody (Catalog No.—MBP; IF-1:1000), rabbit vimentin antibody (Catalog No.—10366-1-AP; IF-1:200), rabbit NGF antibody (Catalog No.—MA5-32067; IF-1:100 and WB-1:1000), mouse PGP 9.5 antibody (Catalog No.—PA5-29012; IF-1:200), chicken anti-P-zero myelin protein antibody (Catalog No.—PZO; IF-1:200), and rat substance P antibody (Catalog No. —NB100-65219; IF-1:100) were overnight incubated with 5% BSA in 0.1% PBS-T for IF stain and/or 5% skimmed milk in 0.1% TBS-T for Western blot at 4° C., then incubated with secondary antibodies for 1 hour at room temperature. The ProLong™ Gold Anti-fade Mountant with DAPI (Invitrogen, Caltlog No. P36935) used as nuclear counterstain. The immunofluorescence stained sections were imaged using ZEISS Axio Observer 7—Axiocam 506 mono—Apotome.2 microscope. The image analysis and quantification were formed either using ZEN 2.6 pro (Zeiss) imaging software or ImageJ-1.53e software (National Institutes of Health, USA).
For protein isolation the harvested skin tissue was flash frozen immediately. The frozen skin tissue ground to a fine power using a liquid nitrogen mortar. The harvested cells and/or tissue powder dissolved in RIPA buffer containing Halt™ Phosphatase (Thermo Scientific, Catlog No. 78420,) and Protease Inhibitor Cocktail (Roche complete tablets mini EASYpack, Catlog No. 04694124001). Tissue and cell debris removed by centrifuged at 14000 rpm for 30 minutes at 4° C. The supernatant was collected and the total protein concentration was determined by BCA protein assay (Thermo Scientific™ Pierce™, Catlog No. 23225). The proteins (20-30 μg) of the tissue protein samples were subjected to 12% sodium dodecyl sulfate polyacrylamide gel electrophoresis (Bio-Rad mini-PROTEAN TGX Gels, Catlog No. 4561044) and transferred to polyvinylidene fluoride (PVDF) membranes. After the membranes were blocked with 5% skimmed milk in 1×TBS-T for 1 hour, they were incubated with the appropriate primary antibodies (1:200-1:1000) at 4° C. overnight, then incubated with HRP-conjugated secondary antibodies (1:3000) for 1 hour. Immunoreactivity was then detected using chemiluminescent substrate (Thermo Scientific™ SuperSignal™ West Pico PLUS, Catlog No. 34577). The intensities of the bands were quantified using Gel-imaging software. The quantified band intensity were normalized using GAPDH and expressed either normalized intensity or ratios with respect to saline treated mice.

[1] = day 14, vs saline treated controls

SMILES: Nc1ccncc1 [4-AP, 4-aminopyridine]
- keratinocyte K10 expression in healed epidermis (day 14): did not cause any change
- levels of PGP 9.5 compared with uninjured tissue (day 14): not significantly different
- K17 expressing cells (day 14, vs control group): more abundant
- inflammatory cells (IL-1β) and macrophages (F4/80) in granulation tissue (day 14, vs control wounds): less of inflammatory cells and macrophages
- fold increase in Ki-67+ [1]: 2 fold
- fold increase in NF-H axonal counts [1]: 2.5 fold
- fold increase in S100+ cells [1]: 3 fold
- increase in K15+ cells [1]: two fold increase
- SOX10 expression (day 14, vs saline treated mice): Significantly increased
- fold increase in NGF expression (day 14, vs saline treated mice): 4 fold
- substance-P expression (day 14, vs saline treated mice): Significantly increased
- fold increase in K14+ keratinocytes (day 14, vs saline-treated mice): 2.5 fold
- double positive (S100+, p75-NTR+) SCs (day 14, vs saline, confirmed by WB for p75-NTR): increased numbers
- K14+ keratinocytes (day 14 wound bed): 13.72±1.403%
- Ki-67+ in hair follicle bulges and epidermis (day 14 wound tissue): 21.87±2.763 cells/mm^2
- NF-H axonal counts (day 14 wound tissue): 194±50.51 count/mm^2
- NGF expression (day 14 wound tissue): 2429872±375280 integrated density/mm^2
- S100+ cells around nerve bundles (day 14 wound tissue): 6.483±1.163 % positive cells
- CD31 intensity (blood vessels) (day 14 wound tissue, vs saline): statistically significant increases
- TGF-β protein expression (day 14 wound tissue, vs saline): significant increases
- vimentin-positive fibroblasts (day 14 wound tissue, vs saline): more vimentin-positive fibroblasts
- α-SMA-positive myofibroblasts (day 14 wound tissue, vs saline): more
- PGP 9.5+ nerve fibres (fourteen days post wound): 4096938±713297 integrated density/mm^2
- PGP 9.5+ nerve fibres relative to saline treated mice (fourteen days post wound): twice as abundant
